This test has as its target USP7 (Homo sapiens, UniProt Q93009). Put plainly: USP7 inhibitory potency (IC50). It is filed as biochemical. How it is done: Activity for compounds described herein is provided in Table 2, wherein potency levels are provided as follows: (Potency: USP7 IC50: A<0.01 μM; B=0.01-0.1 μM; C=>0.1 μM.
Sequence of USP7 (Q93009 whole entry): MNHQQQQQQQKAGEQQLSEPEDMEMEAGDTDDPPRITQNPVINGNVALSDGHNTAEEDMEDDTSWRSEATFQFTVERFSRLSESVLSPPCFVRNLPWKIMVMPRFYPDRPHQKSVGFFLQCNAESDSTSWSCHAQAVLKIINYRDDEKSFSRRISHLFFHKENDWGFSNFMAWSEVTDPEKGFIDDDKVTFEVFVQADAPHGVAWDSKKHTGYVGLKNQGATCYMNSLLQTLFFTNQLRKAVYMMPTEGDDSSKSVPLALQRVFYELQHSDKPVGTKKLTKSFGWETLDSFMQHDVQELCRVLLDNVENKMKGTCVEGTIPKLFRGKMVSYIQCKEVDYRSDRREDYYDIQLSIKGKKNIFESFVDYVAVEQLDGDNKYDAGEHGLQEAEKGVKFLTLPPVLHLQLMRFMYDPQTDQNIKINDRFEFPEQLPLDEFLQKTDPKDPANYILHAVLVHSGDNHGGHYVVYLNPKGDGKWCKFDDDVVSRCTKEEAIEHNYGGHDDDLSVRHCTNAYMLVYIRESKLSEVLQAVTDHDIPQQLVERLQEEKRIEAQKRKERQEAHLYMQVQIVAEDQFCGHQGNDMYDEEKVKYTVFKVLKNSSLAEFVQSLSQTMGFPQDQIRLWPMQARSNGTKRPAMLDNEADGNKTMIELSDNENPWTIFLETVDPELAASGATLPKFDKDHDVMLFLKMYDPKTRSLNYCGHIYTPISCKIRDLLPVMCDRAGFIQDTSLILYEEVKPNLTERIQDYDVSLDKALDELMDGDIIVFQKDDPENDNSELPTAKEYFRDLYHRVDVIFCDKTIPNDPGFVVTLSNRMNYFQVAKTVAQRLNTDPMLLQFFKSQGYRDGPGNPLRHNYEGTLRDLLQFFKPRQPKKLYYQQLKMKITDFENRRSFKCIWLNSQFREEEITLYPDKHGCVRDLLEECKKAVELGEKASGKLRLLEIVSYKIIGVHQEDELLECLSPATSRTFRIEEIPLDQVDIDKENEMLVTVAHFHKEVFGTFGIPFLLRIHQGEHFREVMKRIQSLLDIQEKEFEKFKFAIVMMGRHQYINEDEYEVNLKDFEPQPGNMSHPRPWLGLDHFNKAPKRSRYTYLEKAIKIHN
Usually IC50 stands for the point on the concentration scale where inhibition reaches its midpoint. The low end stands for inhibition by little substance, the high end for a need for much substance. Molecule `Cc1cc(Cl)cc(-c2ccnc3cc(CN4C(=O)C5CC5C4=O)sc23)c1CC1CNCC2(CCC2)O1` (stereo not shown) [Example 131, 3-((7-(2-((5-oxa-8-azaspiro[3.5]nonan-6-yl)methyl)-5-chloro-3-methylphenyl)thieno[3,2-b]pyridin-2-yl)methyl)-3-azabicyclo[3.1.0]hexane-2,4-dione] displayed an IC50 of less than 10 nM.

Regarding `Cc1cc(Cl)cc(-c2ncnc3cc(CN4C(=O)C5CC5C4=O)sc23)c1CN1CCNC[C@@H]1C` (stereo partly drawn) [Example 51, 3-((4-(5-chloro-3-methyl-2-(((S)-2-methylpiperazin-1-yl)methyl)phenyl)thieno[3,2-d]pyrimidin-6-yl)methyl)-3-azabicyclo[3.1.0]hexane-2,4-dione], the IC50 is less than 10 nM.

`Cc1cc(Cl)cc(-c2ncnc3cc(Cn4c(=O)ccn(C)c4=O)sc23)c1C[C@@H]1CNCC(C)(C)O1` [Example 218, (R)-3-((4-(5-chloro-2-((6,6-dimethylmorpholin-2-yl)methyl)-3-methylphenyl)thieno[3,2-d]pyrimidin-6-yl)methyl)-1-methylpyrimidine-2,4(1H,3H)-dione] had an IC50 of less than 10 nM.

The molecule `C[C@H]1CNCCN1Cc1c(F)cc(F)cc1-c1ncnc2cc(CN3C(=O)C4CC4C3=O)sc12` (stereo partly drawn) [Example 74, 3-((4-(3,5-difluoro-2-(((S)-2-methylpiperazin-1-yl)methyl)phenyl)thieno[3,2-d]pyrimidin-6-yl)methyl)-3-azabicyclo[3.1.0]hexane-2,4-dione] displayed a concentration for half-maximal inhibition (IC50) of more than 100 nM.

In the case of `Cc1cc(Cl)cc(-c2ncnc3cc(CN4C(=O)C5CCC5C4=O)sc23)c1CC1CNCCO1` (stereo not shown) [Example 170, 3-((4-(5-chloro-3-methyl-2-(morpholin-2-ylmethyl)phenyl)thieno[3,2-d]pyrimidin-6-yl)methyl)-3-azabicyclo[3.2.0]heptane-2,4-dione], the IC50 was less than 10 nM.

For the molecule `Cc1cc(Cl)cc(-c2ccnc3cc(CN4C(=O)C5CC5C4=O)sc23)c1CC1CNCCOC1` (stereo not shown) [Example 112, 3-((7-(2-((1,4-oxazepan-6-yl)methyl)-5-chloro-3-methylphenyl)thieno[3,2-b]pyridin-2-yl)methyl)-3-azabicyclo[3.1.0]hexane-2,4-dione], the half-inhibitory concentration (IC50) was less than 10 nM.

Consider `Cc1cc(Cl)cc(-c2ncnc3cc(CN4C(=O)C5CC5C4=O)sc23)c1CN1[C@@H](C)CNC[C@@H]1C` (stereo partly drawn) [Example 57, 3-((4-(5-chloro-2-(((2S,6S)-2,6-dimethylpiperazin-1-yl)methyl)-3-methylphenyl)thieno[3,2-d]pyrimidin-6-yl)methyl)-3-azabicyclo[3.1.0]hexane-2,4-dione], for which the half-inhibitory concentration (IC50) is less than 10 nM.

`Cc1cc(Cl)cc(-c2ccnc3cc(CN4C(=O)CCC4C(F)(F)F)sc23)c1CC1CNCCO1` (stereo not shown) [Example 114, 1-((7-(5-chloro-3-methyl-2-(morpholin-2-ylmethyl)phenyl)thieno[3,2-b]pyridin-2-yl)methyl)-5-(trifluoromethyl)pyrrolidin-2-one]: the IC50 was 10 to 100 nM.

Take `Cc1cc(Cl)cc(-c2ncnc3cc(CN4C(=O)N(C)C(C)(C)C4=O)sc23)c1CC1CNCCO1` (stereo not shown) [Example 200, 3-((4-(5-chloro-3-methyl-2-(morpholin-2-ylmethyl)phenyl)thieno[3,2-d]pyrimidin-6-yl)methyl)-1,5,5-trimethylimidazolidine-2,4-dione]: the IC50 is less than 10 nM.

`Cc1cc(Cl)cc(-c2ncnc3cc(CN4C(=O)CN(C)C4=O)sc23)c1CN1[C@@H](C)CNC[C@@H]1C` [Example 87, 3-((4-(5-chloro-2-(((2S,6S)-2,6-dimethylpiperazin-1-yl)methyl)-3-methylphenyl)thieno[3,2-d]pyrimidin-6-yl)methyl)-1-methylimidazolidine-2,4-dione] displayed a concentration for half-maximal inhibition (IC50) of less than 10 nM.

`Cc1cc(C(F)(F)F)cc(-c2ncnc3cc(CN4C(=O)C5CC5C4=O)sc23)c1CN1CCNC[C@@H]1C` (stereo partly drawn) [Example 58, 3-((4-(3-methyl-2-(((S)-2-methylpiperazin-1-yl)methyl)-5-(trifluoromethyl)phenyl)thieno[3,2-d]pyrimidin-6-yl)methyl)-3-azabicyclo[3.1.0]hexane-2,4-dione] displayed an IC50 of 10 to 100 nM.

`Cc1cc(Cl)cc(-c2ncnc3cc(CN4CCCCC4=O)sc23)c1CN1C[C@@H](C)NC[C@@H]1C` [Example 82, 1-((4-(5-chloro-2-(((2S,5R)-2,5-dimethylpiperazin-1-yl)methyl)-3-methylphenyl)thieno[3,2-d]pyrimidin-6-yl)methyl)piperidin-2-one] showed a 50% inhibitory concentration (IC50) of more than 100 nM.

In turn, “3-((4-(2-((5-oxa-8-azaspiro[3.5]nonan-6-yl)methyl)-5-chloro-3-methylphenyl)thieno[3,2-d]pyrimidin-6-yl)methyl)-3-azabicyclo[3.1.0]hexane-2,4-dione [Example 221]” gave an IC50 of less than 10 nM.

Regarding `Cc1cc(Cl)cc(-c2ncnc3cc(CN4C(=O)C5CC5C4=O)sc23)c1C[C@H]1OCCN[C@@H]1C` (stereo partly drawn) [Example 160, 3-((4-(5-chloro-3-methyl-2-(((2R,3R)-3-methylmorpholin-2-yl)methyl)phenyl)thieno[3,2-d]pyrimidin-6-yl)methyl)-3-azabicyclo[3.1.0]hexane-2,4-dione], the IC50 is less than 10 nM.

`Cc1cc(Cl)cc(-c2ccnc3cc(CN4C(=O)CCC4=O)sc23)c1CN1CCNC(C)C1` (stereo not shown) [Example 18, 1-((7-(5-chloro-3-methyl-2-((3-methylpiperazin-1-yl)methyl)phenyl)thieno[3,2-b]pyridin-2-yl)methyl)pyrrolidine-2,5-dione] displayed an IC50 of less than 10 nM.

`Cc1cc(C(F)(F)F)cc(-c2ncnc3cc(CN4C(=O)C5C(C4=O)C5(C)C)sc23)c1CN1CCNC[C@@H]1C` (stereo partly drawn) [Example 59, 6,6-dimethyl-3-((4-(3-methyl-2-(((S)-2-methylpiperazin-1-yl)methyl)-5-(trifluoromethyl)phenyl)thieno[3,2-d]pyrimidin-6-yl)methyl)-3-azabicyclo[3.1.0]hexane-2,4-dione] gave an IC50 of 10 to 100 nM.

Molecule `Cc1cc(Cl)cc(-c2ccnc3cc(CN4C(=O)C5CC5C4=O)sc23)c1C[C@@H]1CNCC(C)(C)O1` (stereo partly drawn) [Example 129, 3-((7-(5-chloro-2-(((R)-6,6-dimethylmorpholin-2-yl)methyl)-3-methylphenyl)thieno[3,2-b]pyridin-2-yl)methyl)-3-azabicyclo[3.1.0]hexane-2,4-dione] showed an IC50 of less than 10 nM.

With `Cc1cc(Cl)cc(-c2ncnc3cc(CN4C(=O)CCCC4=O)sc23)c1CC1CNCCO1` (stereo not shown) [Example 163, 1-((4-(5-chloro-3-methyl-2-(morpholin-2-ylmethyl)phenyl)thieno[3,2-d]pyrimidin-6-yl)methyl)piperidine-2,6-dione], the IC50 was less than 10 nM.

For `C[C@H]1CNC[C@H](C)N1Cc1c(Cl)cc(Cl)cc1-c1ncnc2cc(CN3C(=O)CCC3=O)sc12` [Example 92, 1-((4-(3,5-dichloro-2-(((2S,6S)-2,6-dimethylpiperazin-1-yl)methyl)phenyl)thieno[3,2-d]pyrimidin-6-yl)methyl)pyrrolidine-2,5-dione], the IC50 is less than 10 nM.

For `Cc1cc(Cl)cc(-c2ncnc3cc(CN4C(=O)CN(CCO)C4=O)sc23)c1C[C@@H]1CNCC(C)(C)O1` [Example 276, (R)-3-((4-(5-chloro-2-((6,6-dimethylmorpholin-2-yl)methyl)-3-methylphenyl)thieno[3,2-d]pyrimidin-6-yl)methyl)-1-(2-hydroxyethyl)imidazolidine-2,4-dione], the IC50 was less than 10 nM.

Regarding `Cc1cc(Cl)cc(-c2ccnc3cc(CN4C(=O)CCC4=O)sc23)c1CN1CCNCC1` [Example 5, 1-((7-(5-chloro-3-methyl-2-(piperazin-1-ylmethyl)phenyl)thieno[3,2-b]pyridin-2-yl)methyl)pyrrolidine-2,5-dione], the 50% inhibitory concentration (IC50) was in the range of 10 to 100 nM.

`Cc1cc(Cl)cc(-c2ccnc3cc(Cn4c(=O)ccn(C5CCC5)c4=O)sc23)c1CC1CNCCO1` (stereo not shown) [Example 111, 3-((7-(5-chloro-3-methyl-2-(morpholin-2-ylmethyl)phenyl)thieno[3,2-b]pyridin-2-yl)methyl)-1-cyclobutylpyrimidine-2,4(1H,3H)-dione]: the half-maximal inhibitory concentration (IC50) was less than 10 nM.

Turning to `Cc1cc(Cl)cc(-c2ccnc3cc(CN4C(=O)C5CC5C4=O)sc23)c1CC1CNCC(C)(C)O1` (stereo not shown) [Example 120, 3-((7-(5-chloro-2-((6,6-dimethylmorpholin-2-yl)methyl)-3-methylphenyl)thieno[3,2-b]pyridin-2-yl)methyl)-3-azabicyclo[3.1.0]hexane-2,4-dione], the 50% inhibitory concentration (IC50) was less than 10 nM.

As to `Cc1cc(Cl)cc(-c2ncnc3cc(CN4C(=O)OC[C@@H]4CO)sc23)c1C[C@@H]1CNCC(C)(C)O1` [Example 268, (S)-3-((4-(5-chloro-2-(((R)-6,6-dimethylmorpholin-2-yl)methyl)-3-methylphenyl)thieno[3,2-d]pyrimidin-6-yl)methyl)-4-(hydroxymethyl)oxazolidin-2-one], the IC50 was less than 10 nM.

`Cc1cc(Cl)cc(-c2ccnc3cc(Cn4c(=O)ccn(CC(F)(F)F)c4=O)sc23)c1CN1CCNC(=O)C1` [Example 1, 3-((7-(5-chloro-3-methyl-2-((3-oxopiperazin-1-yl)methyl)phenyl)thieno[3,2-b]pyridin-2-yl)methyl)-1-(2,2,2-trifluoroethyl)pyrimidine-2,4(1H,3H)-dione] returned an IC50 of more than 100 nM.

Take `Cc1cc(Cl)cc(-c2ccnc3cc(CN4C(=O)CCC4=O)sc23)c1CN1CCNCC1(C)C` [Example 12, 1-((7-(5-chloro-2-((2,2-dimethylpiperazin-1-yl)methyl)-3-methylphenyl)thieno[3,2-b]pyridin-2-yl)methyl)pyrrolidine-2,5-dione]: the IC50 was less than 10 nM.

`Cc1cc(Cl)cc(-c2ncnc3cc(CN4C(=O)CCC4=O)sc23)c1CC1CNCC(C)(C)O1` (stereo not shown) [Example 190, 1-((4-(5-chloro-2-((6,6-dimethylmorpholin-2-yl)methyl)-3-methylphenyl)thieno[3,2-d]pyrimidin-6-yl)methyl)pyrrolidine-2,5-dione] had a half-inhibitory concentration (IC50) of less than 10 nM.

For the molecule `Cc1cc(Cl)cc(-c2ncnc3cc(CN4C(=O)C5CC5C4=O)sc23)c1CC1CNCC2(COC2)O1` (stereo not shown) [Example 220, 3-((4-(2-((2,5-dioxa-8-azaspiro[3.5]nonan-6-yl)methyl)-5-chloro-3-methylphenyl)thieno[3,2-d]pyrimidin-6-yl)methyl)-3-azabicyclo[3.1.0]hexane-2,4-dione], the 50% inhibitory concentration (IC50) was less than 10 nM.

For the origin of these results see patent US11084829B2, “Ubiquitin-specific-processing protease 7 (USP7) modulators and uses thereof” (RAPT THERAPEUTICS, INC., priority 2018, dated 2021).
